Results as given in ChEMBL document CHEMBL5604063, “ASAP - DENV-2 NS2B-NS3 protease fluorescence dose response” (2024).
Values joined by “and” are separate entries in the source; they are usually repeats but may differ in a detail not shown here. Equal values may be shown once.

What was measured:
Genome polyprotein [1] = target: T1, Genome polyprotein (dengue virus type 2, UniProt P29990); format: functional, Thailand/16681/1984
Genome polyprotein [2] = target: T1, Genome polyprotein; format: functional, Thailand/16681/1984; remark: listed apart in the source

T1 sequence (P29990 1346-1475 limits assumed): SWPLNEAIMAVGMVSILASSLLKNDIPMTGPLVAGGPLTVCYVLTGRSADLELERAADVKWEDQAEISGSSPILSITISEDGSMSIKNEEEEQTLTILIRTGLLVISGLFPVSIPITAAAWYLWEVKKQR
T1 sequence (P29990 1476-2093 limits assumed): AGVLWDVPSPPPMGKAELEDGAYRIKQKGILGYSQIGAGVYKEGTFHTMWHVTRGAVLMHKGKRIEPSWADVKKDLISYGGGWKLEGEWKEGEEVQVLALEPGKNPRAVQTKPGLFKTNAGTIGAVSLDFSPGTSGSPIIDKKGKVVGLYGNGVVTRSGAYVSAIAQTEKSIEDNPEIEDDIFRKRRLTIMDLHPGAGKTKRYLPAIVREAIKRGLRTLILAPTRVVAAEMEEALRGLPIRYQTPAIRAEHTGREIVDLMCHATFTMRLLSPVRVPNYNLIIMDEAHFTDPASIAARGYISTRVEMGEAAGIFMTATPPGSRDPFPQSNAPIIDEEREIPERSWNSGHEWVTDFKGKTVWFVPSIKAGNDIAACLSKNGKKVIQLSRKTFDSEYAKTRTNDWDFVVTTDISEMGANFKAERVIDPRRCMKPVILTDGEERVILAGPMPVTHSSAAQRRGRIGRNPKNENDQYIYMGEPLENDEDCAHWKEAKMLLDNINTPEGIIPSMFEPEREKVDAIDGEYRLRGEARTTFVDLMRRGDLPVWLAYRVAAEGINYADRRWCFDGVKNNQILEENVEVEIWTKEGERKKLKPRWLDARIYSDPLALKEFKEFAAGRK

Row | Compound | IC50 (Genome polyprotein [1]) | IC50 (Genome polyprotein [2])
1 | NCc1cccc(NC(=O)c2cc(Cl)cc3c2cnn3CC2CC2)c1 | > 100 µM | > 99.5 µM
2 | C[C@H]1CCC[C@H](C(=O)Nc2cccc(CN)c2)O1 | > 100 µM | > 99.5 µM
3 | NCc1cccc(NC(=O)[C@H]2C[C@@H](C(F)(F)F)C[C@@H](C(F)(F)F)C2)c1 | > 100 µM | > 99.5 µM
4 | Cn1cncc1COc1cccc([C@H](NC(=O)OCc2ccccc2)C(=O)Nc2cccc(CN)c2)c1 | > 100 µM | 66 µM
5 | CS(=O)(=O)N(c1cc(Cl)cc(C(=O)Nc2cccc(CN)c2)c1)S(C)(=O)=O | > 100 µM | > 99.5 µM
6 | Cc1ccc(S(=O)(=O)N2Cc3ccccc3C[C@@H](C(=O)Nc3cccc(CN)c3)C2)cc1 | > 100 µM | 75.2 µM
7 | O=C(N[C@H]1[C@H]2CCCCC[C@H]2[C@H]1C(=O)Nc1cccc(C2CCNCC2)c1)OCc1ccccc1 | 32.7 µM | 17.9 µM and 53 µM
8 | NCCc1ccc(NC(=O)c2cc(Cl)cc(CN)c2)cc1 | > 100 µM | > 99.5 µM
9 | COCC=Cc1cccc([C@@H](NC(=O)OCc2ccccc2)C(=O)Nc2cccc(CN)c2)c1 | > 100 µM | 56.9 µM
10 | NCc1cccc(NC(=O)c2cc(N)cc(Cl)c2)c1 | > 100 µM | > 99.5 µM
11 | c1cncc(CN2CC[C@H](NCc3c[nH]c4ccccc34)C2)c1 | > 100 µM | > 99.5 µM
12 | CCOc1cccc(-c2ccc(S(=O)(=O)Nc3ccc(Cl)cc3C(=O)O)cc2C)c1 | 7.34 µM | 7.15 µM
13 | NC1CN(c2ccc(NS(=O)(=O)c3ccc(Oc4ccccc4Cl)cc3)cn2)C1 | > 100 µM | > 99.5 µM
14 | NCc1cccc(NC(=O)[C@H](NC(=O)OCc2ccccc2)c2cccc(-c3ccnc(N)c3)c2)c1 | > 100 µM | > 99.5 µM
15 | O=C(Nc1cc(Cl)cc(C(=O)Nc2cccc(-c3cc[nH]n3)c2)c1)OCc1ccccc1 | > 100 µM | > 99.5 µM
16 | N[C@H]1CCCc2ccc(NC(=O)c3cc(Cl)cc(NC(=O)OCc4ccccc4)c3)cc21 | > 100 µM | > 99.5 µM
17 | NCCc1cc(Cl)cc(C(=O)Nc2cccc(CN)c2)c1 | > 100 µM | > 99.5 µM
18 | Cn1cc([C@@H]2C[C@H](C(=O)Nc3cccc(CN)c3)CC(=O)N2)cn1 | > 100 µM | > 99.5 µM
19 | NCc1cccc(NC(=O)[C@@H](NC(=O)OCc2ccccc2)c2cccc(-c3ccc(CN)cc3F)c2)c1 | > 100 µM | > 99.5 µM
20 | O=C(NCCc1nc2ccccc2[nH]1)c1cc2ccc(F)cc2s1 | > 100 µM | > 99.5 µM
21 | CCc1cc(NC(=O)OCc2ccccc2)cc(C(=O)Nc2cccc(CN)c2)c1 | > 100 µM | > 99.5 µM

Row | Compound | IC50 (Genome polyprotein [1]) | IC50 (Genome polyprotein [2])
22 | Cc1cc(C(=O)Nc2cccc(CN)c2)c2c(C)nn(CC(=O)NC(C)C)c2n1 | > 100 µM | > 99.5 µM
23 | N[C@@H](CCO)c1cccc(NC(=O)c2cc(Cl)cc(NC(=O)OCc3ccccc3)c2)c1 | > 100 µM | > 99.5 µM
24 | CN(C)[C@@H]1CCC[C@@H](C(=O)Nc2cccc(CN)c2)C1 | > 100 µM | > 99.5 µM
25 | C[C@@H](N)c1cccc(NC(=O)[C@H]2[C@H]3CCCCC[C@H]3[C@H]2NC(=O)OCc2ccccc2)c1 | 29 µM | 13.5 µM and 13.8 µM
26 | NCc1cccc(NC(=O)[C@H](NC(=O)OCc2ccccc2)c2cccc(-c3ccccn3)c2)c1 | > 100 µM | > 99.5 µM
27 | COc1ccc(-c2cccc([C@@H](NC(=O)OCc3ccccc3)C(=O)Nc3cccc(CN)c3)c2)cn1 | > 100 µM | > 99.5 µM
28 | CC(C)(CNCc1c[nH]c2ccccc12)c1cccnc1 | > 100 µM | > 99.5 µM
29 | NCc1cccc(NC(=O)[C@@H]2[C@H](N)[C@@H]3CCCCC[C@@H]32)c1 | > 100 µM | > 99.5 µM
30 | Cn1cc(NC(=O)c2cc(Cl)cc(NC(=O)OCc3ccccc3)c2)cn1 | > 100 µM | > 99.5 µM
31 | NCc1cccc(CNC(=O)[C@H]2[C@H]3CCCCC[C@H]3[C@H]2NC(=O)OCc2ccccc2)c1 | 80.3 µM | 14.4 µM and 63.2 µM and 44.4 µM
32 | NCc1cccc(NC(=O)[C@@H]2CCC[C@]3(CCNC3=O)C2)c1 | > 100 µM | > 99.5 µM
33 | COC(=O)c1cc(NC(=O)OCc2ccccc2)cc(C(=O)Nc2cccc(CN)c2)c1 | > 100 µM | > 99.5 µM
34 | NCc1cccc(NC(=O)c2c(F)c(Cl)cc(NC(=O)OCc3ccccc3)c2F)c1 | > 100 µM | > 99.5 µM
35 | O=C(Nc1cc(Cl)cc(C(=O)Nc2nccc([C@H]3CCCCN3)n2)c1)OCc1ccccc1 | > 100 µM | > 99.5 µM
36 | CC(C)[C@@H]1CC[C@@H](C)C[C@H]1C(=O)Nc1cccc(CN)c1 | > 100 µM | > 99.5 µM
37 | NCc1cccc(NC(=O)c2cc(Cl)cc(C(N)=O)c2)c1 | > 100 µM | > 99.5 µM
38 | NCc1cccc(NC(=O)[C@@]23CCC[C@H](C2)N3C(=O)OCc2ccccc2)c1 | > 100 µM | > 99.5 µM
39 | CN(C)Cc1ccc(NC(=O)c2cc(Cl)cc(NC(=O)OCc3ccccc3)c2)cc1 | > 100 µM | > 99.5 µM
40 | NCc1ccc(NC(=O)[C@H]2[C@H]3CCCCC[C@H]3[C@H]2NC(=O)OCc2ccccc2)cc1 | > 100 µM | 57.4 µM
41 | NCc1cccc(NC(=O)[C@@H]2CCC[C@H](OC(F)(F)F)C2)c1 | > 100 µM | > 99.5 µM
42 | Cc1cc(C(=O)Nc2cccc(CN)c2)cc(NCC(F)(F)F)n1 | > 100 µM | > 99.5 µM

Row | Compound | IC50 (Genome polyprotein [1]) | IC50 (Genome polyprotein [2])
43 | NCc1cccc(NC(=O)[C@H](NC(=O)OCc2ccccc2)c2cccc(-c3ccc4c(c3)CC(=O)N4)c2)c1 | > 100 µM | 16.2 µM and 7.19 µM
44 | Cc1cc(C(=O)Nc2cccc(CN)c2)c2nc(C)n(C)c2n1 | > 100 µM | > 99.5 µM
45 | Cc1cc(C)c([C@@H](CC(=O)Nc2cccc(CN)c2)NC(=O)OCc2ccccc2)cc1C | 11.6 µM | 7.12 µM and 7.23 µM
46 | Cn1cc(-c2cccc([C@@H](NC(=O)OCc3ccccc3)C(=O)Nc3cccc(CN)c3)c2)ccc1=O | > 100 µM | > 99.5 µM
47 | CC(F)(F)c1cccc(NC(=O)c2cc(Cl)cc(NC(=O)OCc3ccccc3)c2)c1 | > 100 µM | > 99.5 µM
48 | O=C(Nc1cc(Cl)cc(C(=O)Nc2cccc(-c3nnn[nH]3)c2)c1)OCc1ccccc1 | 11.1 µM and 11 µM | 13.6 µM
49 | C[C@@H]1C[C@@H](C(=O)Nc2cccc(CN)c2)CCO1 | > 100 µM | > 99.5 µM
50 | CN(C)[C@@H]1CCC[C@H](C(=O)Nc2cccc(CN)c2)C1 | > 100 µM | > 99.5 µM
51 | C[C@@H]1CCC[C@H](C(=O)Nc2cccc(CN)c2)O1 | > 100 µM | > 99.5 µM
52 | NCc1cccc(NC(=O)c2cc(Br)cc3[nH]ccc23)c1 | > 100 µM | > 99.5 µM
53 | Cc1cc(C(F)(F)F)nc(C(=O)Nc2cccc(CN)c2)n1 | > 100 µM | > 99.5 µM
54 | NC1(c2cccc(NC(=O)c3cc(Cl)cc(NC(=O)OCc4ccccc4)c3)c2)CC1 | > 100 µM | > 99.5 µM
55 | NCc1cccc(Oc2ccc(S(=O)(=O)Nc3ccc(Cl)cc3C(=O)NCC(F)(F)F)cc2)c1 | > 100 µM | > 99.5 µM
56 | NC(=O)c1cccc(NC(=O)c2cc(Cl)cc(NC(=O)OCc3ccccc3)c2)c1 | > 100 µM | > 99.5 µM
57 | NCc1cccc(NC(=O)[C@H]2COCC3(CCC3)O2)c1 | > 100 µM | > 99.5 µM
58 | NCc1cccc(NC(=O)c2cc(Cl)cc3[nH]ncc23)c1 | > 100 µM | > 99.5 µM
59 | CC[C@@H](Cc1nnn[nH]1)c1ccc(NC(=O)c2cc(Cl)cc(NC(=O)OCc3ccccc3)c2)cc1 | 8.21 µM and 8.62 µM | 8.85 µM
60 | O=C(Nc1cc(Cl)cc(C(=O)Nc2cccc(Cc3nn[nH]n3)c2)c1)OCc1ccccc1 | > 100 µM | 22 µM
61 | CC(=O)NCc1cccc(NC(=O)c2cc(Cl)cc(NC(=O)OCc3ccccc3)c2)c1 | > 100 µM | > 99.5 µM
62 | C=C(C)c1cccc([C@@H](NC(=O)OCc2ccccc2)C(=O)Nc2cccc(CN)c2)c1 | > 100 µM | 30.1 µM
63 | NCc1cccc(NC(=O)c2cccc3c2CCC3)c1 | > 100 µM | > 99.5 µM

Row | Compound | IC50 (Genome polyprotein [1]) | IC50 (Genome polyprotein [2])
64 | CNCc1cc(Cl)cc(C(=O)Nc2cccc(CN)c2)c1 | > 100 µM | > 99.5 µM
65 | NCCc1cccc(-c2cccc([C@@H](NC(=O)OCc3ccccc3)C(=O)Nc3cccc(CN)c3)c2)c1 | > 100 µM | 33.6 µM
66 | NCc1cccc(NC(=O)[C@@H](NC(=O)OCc2ccccc2)c2cccc(-c3ccc(N)nc3)c2)c1 | > 100 µM | > 99.5 µM
67 | CC(C)(C)OC(=O)NCc1cc(Br)cc(NC(=O)c2cc(Cl)cc(NC(=O)OCc3ccccc3)c2)c1 | > 100 µM | > 99.5 µM
68 | C[C@@H](NCc1c[nH]c2ccccc12)c1cscn1 | > 100 µM | > 99.5 µM
69 | NCc1cccc(NC(=O)c2cc(Br)cnc2OCC2CC2)c1 | > 100 µM | > 99.5 µM
70 | NCc1cc(NS(=O)(=O)c2ccc(Oc3ccccc3Cl)cc2)ccc1Cl | > 100 µM | > 99.5 µM
71 | CCn1ncc(-c2noc3nc(C)cc(C(=O)Nc4cccc(CN)c4)c23)c1C | > 100 µM | > 99.5 µM
72 | NCc1cccc(NC(=O)[C@H]2CCc3nnc(C4CC4)n3C2)c1 | > 100 µM | > 99.5 µM
73 | COc1ccc2c(c1)c(C(=O)Nc1cccc(CN)c1)c(C)n2C1CCCC1 | > 100 µM | > 99.5 µM
74 | CN1CC=C(c2cccc([C@@H](NC(=O)OCc3ccccc3)C(=O)Nc3cccc(CN)c3)c2)CC1 | > 100 µM | > 99.5 µM
75 | NCc1cccc(NC(=O)c2cc(Cl)cc(CN3CCOCC3)c2)c1 | > 100 µM | > 99.5 µM
76 | CCOc1cccc(-c2ccc(S(=O)(=O)Nc3cc(F)c(Cl)cc3C(=O)O)cc2)c1 | 7.19 µM | 5.09 µM
77 | NCc1cc(Cl)cc(C(=O)Nc2ccc3c(c2)CNC3)c1 | > 100 µM | > 99.5 µM
78 | OC[C@H](Cc1cccnc1)NCc1c[nH]c2ccccc12 | > 100 µM | > 99.5 µM
79 | C[C@@H](N)c1cc(Cl)cc(C(=O)Nc2cccc(CN)c2)c1 | > 100 µM | > 99.5 µM
80 | N[C@H]1CCOc2ccc(NC(=O)c3cc(Cl)cc(NC(=O)OCc4ccccc4)c3)cc21 | > 100 µM | > 99.5 µM
81 | O=C(Nc1cc(Cl)cc(C(=O)Nc2cccc(-n3nn[nH]c3=O)c2)c1)OCc1ccccc1 | 8.66 µM and 9.23 µM | 11 µM and 11.4 µM
